{
  "source": "patent US9283285B2",
  "about": "“Stable nanocomposition comprising docetaxel, process for the preparation thereof, its use and pharmaceutical compositions containing it” (BBS Nanotechnology Ltd., priority 2013, dated 2016)",
  "tested_on": "HeLa cells, A2780 cells",
  "assay": "growth profile of cells by Real Time Analyser (xCELLigence RTCA, Roche)",
  "assay_type": "cell-based, human",
  "settings": "HeLa and A2780 cells; same concentration of docetaxel; FIG. 2",
  "text": "FIG. 2A, 2B: HeLa and A2780 measured by Real Time Analyser (Roche). These figures show the growth profile of HeLa cells (A), and A2780 cells (B) after treating with docetaxel drug molecules (D), docetaxel-loaded nanoparticles (NP) and control cells (C). The injected volume contained the same concentration of docetaxel.\nThe xCELLigence RTCA HT Instrument from Roche Applied Science uses gold electrodes at the bottom surface of microplate wells as sensors to which an alternating current is applied. Cells that are grown as adherent monolayers on top of such electrodes influence the alternating current at the electrodes by changing the electrical resistance (impedance). The degree of this change is primarily determined by the number of cells, strength of the cell-cell interactions, interactions of the cells with the microelectrodes and by the overall morphology of the cells. The RTCA Software calculates the Cell Index (CI) as the relative change in measured impedance to represent cell status. The normalized cell index (NCI—plotted on y axis) is the relative cell impedance presented in the percentage of the value at the base-time. […] NCI increases by rise of cell-number or cell-size. For example NCI value in a culture treated with a proliferation inhibitory drug first can increase (because the cell-size grows) and after decreases (because the cell-number reduces)",
  "data": [
    {"smiles": "CC(=O)O[C@@]12CO[C@@H]1C[C@H](O)[C@@]1(C)C(=O)[C@H](O)C3=C(C)[C@@H](OC(=O)[C@H](O)[C@@H](NC(=O)OC(C)(C)C)c4ccccc4)C[C@@](O)([C@@H](OC(=O)c4ccccc4)[C@H]21)C3(C)C", "note": "[docetaxel, 1,7β,10β-trihydroxy-9-oxo-5β,20-epoxytax-11-ene-2α,4,13α-triyl 4-acetate 2-benzoate 13-{(2R,3S)-3-[(tert-butoxycarbonyl)amino]-2-hydroxy-3-phenylpropanoate}]", "values": [
      {"measurement": "effect on growth profile (normalized cell index) of tumor cell lines", "result": "similar"}
    ]}
  ]
}
